Holding throughout (format): cell-based
For experiment [1], the system named is SERPINE1 gene expression in fibroblasts. The experiment is described as follows: SERPINE1 gene expression in fibroblasts. The note with it: older cells (passage 20), FIG. 2. An excerpt: (§1) FIG. 2 illustrates the increased expression of EFNB1, NFE2L2, SERPINE1 and SIRT1 genes in fibroblasts that occurs by administration of taltirelin.
Experiment [2] deals with EFNB1 gene expression in fibroblasts. The experiment in a line: EFNB1 gene expression in fibroblasts. The settings on record: older cells (passage 20), FIG. 2.
Text: as §1

The subject of experiment [3] is FOXO3 gene expression in fibroblasts. The experiment in a line: FOXO3 gene expression in fibroblasts. The note with it: older cells (passage 20), P<0.01, FIG. 1. An excerpt: (§2) Experiments have shown that taltirelin modulates the gene expression in fibroblasts of a variety of genes involved in processes underlying ageing.
(§3) FIG. 1 illustrates the increased expression of FOXO1 and FOXO3 genes that occurs in fibroblasts by administration of taltirelin. From the results, it can be seen that the administration of taltirelin in older cells (passage 20) led to a large increase in the expression of FOXO1 (>5×) and FOXO3 (>1.5×) compared to untreated controls. The results were statistically significant with P<0.01.

The subject of experiment [4] is FOXO1 gene expression in fibroblasts. The experiment is described as follows: FOXO1 gene expression in fibroblasts. The settings on record: older cells (passage 20), P<0.01, FIG. 1.
Text: as §2, §3

Experiment [5] concerns SIRT1 gene expression in fibroblasts. The experiment in a line: SIRT1 gene expression in fibroblasts. The settings on record: older cells (passage 20), FIG. 2.
Text: as §1

For experiment [6], the system named is NFE2L2 gene expression in fibroblasts. The experiment is described as follows: NFE2L2 gene expression in fibroblasts. The settings on record: older cells (passage 20), FIG. 2.
Text: as §1

SMILES strings stand for the structures. “Also recorded” adds a separate entry of the source.

Take `CN1C(=O)C[C@@H](C(=O)N[C@@H](Cc2cnc[nH]2)C(=O)N2CCC[C@H]2C(N)=O)NC1=O` [taltirelin, N-[[(4S)-Hexahydro-1-methyl-2,6-dioxo-4-pyrimidinyl]carbonyl]-L-histidyl-L-prolinamide]: the “expression of SERPINE1 gene compared to untreated controls” value in experiment [1] is “statistically significant (P<0.01) decrease; also recorded: significantly inhibited”. In addition, in experiment [2], the “expression of EFNB1 gene compared to untreated controls” value is listed as “statistically significant (P<0.01) increase; also recorded: significantly increased”. The “increase in the expression of FOXO3 compared to untreated controls” value in experiment [3] is recorded as over 1.5 ×. Further, the “increase in the expression of FOXO1 compared to untreated controls” value in experiment [4] is on record as over 5 ×. Moreover, in experiment [5], the “expression of SIRT1 gene compared to untreated controls” value was “statistically significant (P<0.01) increase; also recorded: increased significantly”. For the same compound, in experiment [6], the “expression of NFE2L2 gene compared to untreated controls” value was “statistically significant (P<0.01) increase; also recorded: significantly increased”.
